Experimental data: the supplement of paper PMC10307832

Columns and labels:
Test in all cases: relative viability (nuclei count vs DMSO), 5 days (fraction); higher = more cells survive
[1] = compound: CCc1cnn2c(NCc3ccc[n+]([O-])c3)cc(N3CCCC[C@H]3CCO)nc12 [Dinaciclib] + CCNC(=O)c1noc(-c2cc(C(C)C)c(O)cc2O)c1-c1ccc(CN2CCOCC2)cc1 [Luminespib] (partner 0.01 µM)
Procedure, shortened: (§1)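 Relative viability was taken as the ratio of nuclei in treated wells to nuclei in vehicle wells. Lung cancer cell lines in 1536-well plates received compounds by pin tool one day after seeding, either one drug alone or a fixed anchor-drug dose plus five library-drug doses (not always all listed) in √10 steps. Nuclei were counted on 4× images after 5 days of treatment, and values are medians of duplicate plates.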

[2] = compound: CCc1cnn2c(NCc3ccc[n+]([O-])c3)cc(N3CCCC[C@H]3CCO)nc12 [Dinaciclib] + COc1cc2c(Oc3ccc(NC(=O)C4(C(=O)Nc5ccc(F)cc5)CC4)cc3F)ccnc2cc1OCCCN1CCOCC1 [Foretinib] (partner 0.25 µM)
Procedure, shortened: as §1

[3] = compound: CCc1cnn2c(NCc3ccc[n+]([O-])c3)cc(N3CCCC[C@H]3CCO)nc12 [Dinaciclib] + COc1cccc2cc(-c3nc([C@H]4CC[C@H](C(=O)O)CC4)n4ncnc(N)c34)[nH]c12 [OSI-027] (partner 0.5 µM)
Procedure, shortened: as §1

[4] = compound: CCc1cnn2c(NCc3ccc[n+]([O-])c3)cc(N3CCCC[C@H]3CCO)nc12 [Dinaciclib] + Cc1nc(NC(=O)N2CCC[C@H]2C(N)=O)sc1-c1ccnc(C(C)(C)C(F)(F)F)c1 [Alpelisib] (partner 2 µM)
Procedure, shortened: as §1

[5] = compound: CCc1cnn2c(NCc3ccc[n+]([O-])c3)cc(N3CCCC[C@H]3CCO)nc12 [Dinaciclib] + Nc1ncn([C@H]2C[C@H](O)[C@@H](CO)O2)c(=O)n1 [Decitabine] (partner 2 µM)
Procedure, shortened: as §1

Cell Line	relative viability ([1]; first compound 0.009487 µM)	relative viability ([1]; first compound 0.03 µM)	relative viability ([1]; first compound 0.09487 µM)	relative viability ([1]; first compound 0.3 µM)	relative viability ([2]; first compound 0.009487 µM)	relative viability ([2]; first compound 0.03 µM)	relative viability ([2]; first compound 0.09487 µM)	relative viability ([2]; first compound 0.3 µM)	relative viability ([3]; first compound 0.009487 µM)	relative viability ([3]; first compound 0.03 µM)	relative viability ([3]; first compound 0.09487 µM)	relative viability ([3]; first compound 0.3 µM)	relative viability ([4]; first compound 0.009487 µM)	relative viability ([4]; first compound 0.03 µM)	relative viability ([4]; first compound 0.09487 µM)	relative viability ([4]; first compound 0.3 µM)	relative viability ([5]; first compound 0.009487 µM)	relative viability ([5]; first compound 0.03 µM)	relative viability ([5]; first compound 0.09487 µM)	relative viability ([5]; first compound 0.3 µM)
RERF-LC-KJ	0.452	0.195	0.179	0.208	0.902	0.635	0.15	0.101	0.461	0.177	0.185	0.182	0.826	0.41	0.154	0.161	0.476	0.157	0.157	0.147
NCI-H322M	0.431	0.243	0.265	0.229	0.801	0.287	0.302	0.281	0.419	0.286	0.323	0.285	0.737	0.718	0.196	0.211	0.713	0.441	0.416	0.348
NCI-H1651	0.695	0.554	0.0648	0.0578	0.858	0.683	0.0694	0.0598	0.694	0.53	0.163	0.0729	0.865	0.613	0.108	0.0602	0.705	0.391	0.105	0.0596
HARA	0.367	0.0789	0.0403	0.0571	0.583	0.0737	0.0603	0.0628	0.532	0.064	0.04	0.0478	0.72	0.0726	0.0663	0.0442	0.437	0.205	0.135	0.101
H3255	0.813	0.72	0.204	0.18	0.841	0.76	0.217	0.2	0.593	0.394	0.279	0.226	0.716	0.352	0.15	0.141	0.642	0.237	0.157	0.147
NCI-H441	0.262	0.18	0.177	0.193	0.789	0.204	0.174	0.222	0.519	0.185	0.202	0.153	0.594	0.128	0.147	0.15	0.223	0.199	0.134	0.147
ABC-1	0.581	0.209	0.173	0.178	0.876	0.166	0.126	0.106	0.329	0.123	0.104	0.118	0.726	0.342	0.194	0.172	0.963	0.338	0.297	0.237
NCI-H1437	1.1	0.354	0.152	0.136	1.06	0.564	0.184	0.15	1	0.506	0.132	0.132	0.87	0.182	0.0937	0.094	0.405	0.194	0.182	0.197
HOP-62	0.778	0.193	0.0765	0.0749	1.11	0.376	0.0923	0.0743	0.72	0.446	0.139	0.0825	0.828	0.27	0.0713	0.0692	0.204	0.21	0.0932	0.0689
EPLC-272H	0.2	0.0547	0.042	0.0355	0.591	0.0464	0.0366	0.0314	0.288	0.152	0.0567	0.0523	0.828	0.542	0.0754	0.0887	0.36	0.088	0.0389	0.0501
COR-L 105	0.509	0.214	0.229	0.169	1.17	0.644	0.247	0.259	0.51	0.232	0.224	0.234	0.575	0.35	0.234	0.187	0.618	0.408	0.304	0.278
NCI-H2009	0.649	0.0986	0.101	0.101	1.3	0.144	0.103	0.0969	0.528	0.0935	0.11	0.107	0.923	0.151	0.102	0.0919	0.41	0.294	0.081	0.0958
NCI-H23	0.197	0.172	0.168	0.148	0.57	0.187	0.108	0.15	0.714	0.227	0.132	0.1	0.578	0.15	0.119	0.104	0.242	0.216	0.14	0.135
NCI-H727	0.404	0.253	0.301	0.282	1.05	0.283	0.259	0.249	0.468	0.317	0.285	0.326	0.488	0.159	0.163	0.164	0.916	0.37	0.413	0.373
NCI-H1355	0.703	0.246	0.135	0.195	1.12	0.268	0.148	0.166	0.435	0.212	0.159	0.151	0.933	0.233	0.141	0.159	0.364	0.321	0.174	0.157
NCI-H1944	0.799	0.142	0.137	0.137	0.892	0.191	0.152	0.134	0.413	0.156	0.139	0.141	0.904	0.221	0.152	0.166	0.44	0.199	0.137	0.156

Cell Line	relative viability ([1]; first compound 0.009487 µM)	relative viability ([1]; first compound 0.03 µM)	relative viability ([1]; first compound 0.09487 µM)	relative viability ([1]; first compound 0.3 µM)	relative viability ([2]; first compound 0.009487 µM)	relative viability ([2]; first compound 0.03 µM)	relative viability ([2]; first compound 0.09487 µM)	relative viability ([2]; first compound 0.3 µM)	relative viability ([3]; first compound 0.009487 µM)	relative viability ([3]; first compound 0.03 µM)	relative viability ([3]; first compound 0.09487 µM)	relative viability ([3]; first compound 0.3 µM)	relative viability ([4]; first compound 0.009487 µM)	relative viability ([4]; first compound 0.03 µM)	relative viability ([4]; first compound 0.09487 µM)	relative viability ([4]; first compound 0.3 µM)	relative viability ([5]; first compound 0.009487 µM)	relative viability ([5]; first compound 0.03 µM)	relative viability ([5]; first compound 0.09487 µM)	relative viability ([5]; first compound 0.3 µM)
NCI-H2023	0.561	0.058	0.055	0.0469	0.948	0.0806	0.0663	0.0474	0.395	0.0919	0.052	0.067	0.538	0.25	0.064	0.0614	0.157	0.0607	0.0544	0.0524
NCI-H1395	0.631	0.31	0.244	0.238	1.18	0.335	0.269	0.252	0.631	0.311	0.251	0.215	0.903	0.304	0.312	0.303	0.649	0.286	0.286	0.251
NCI-H2087	0.189	0.107	0.0516	0.0567	0.93	0.118	0.0913	0.106	0.529	0.0975	0.11	0.0895	0.843	0.144	0.121	0.116	0.189	0.0863	0.0711	0.0804
NCI-H838	0.295	0.134	0.104	0.0905	0.993	0.487	0.125	0.101	0.436	0.219	0.0977	0.0933	0.916	0.149	0.11	0.123	0.337	0.162	0.131	0.138
NCI-H1793	0.218	0.107	0.144	0.12	0.344	0.171	0.141	0.143	0.268	0.13	0.107	0.123	0.468	0.188	0.163	0.15	0.488	0.206	0.127	0.149
LC-2-ad	0.877	0.23	0.23	0.178	0.824	0.248	0.205	0.195	0.58	0.251	0.247	0.227	0.811	0.0609	0.0619	0.0681	0.745	0.541	0.158	0.151
LOU-NH91	0.324	0.294	0.224	0.16	0.971	0.406	0.214	0.216	0.787	0.543	0.227	0.222	0.73	0.462	0.253	0.235	0.642	0.434	0.269	0.271
NCI-H1734	0.165	0.129	0.119	0.0997	0.803	0.164	0.132	0.129	0.471	0.13	0.11	0.116	0.607	0.271	0.127	0.138	0.5	0.277	0.134	0.139
NCI-H520	0.239	0.231	0.222	0.217	0.573	0.126	0.136	0.151	0.277	0.179	0.19	0.156	0.601	0.148	0.141	0.147	0.47	0.131	0.155	0.168
UMC-11	0.271	0.177	0.158	0.174	0.277	0.189	0.166	0.19	0.267	0.203	0.177	0.153	0.285	0.147	0.135	0.158	0.531	0.197	0.2	0.169
NCI-H596	0.564	0.566	0.174	0.186	0.861	0.547	0.176	0.178	0.787	0.665	0.392	0.153	0.517	0.426	0.105	0.154	1.48	0.839	0.271	0.258
NCI-H1755	0.395	0.624	0.147	0.14	0.917	0.516	0.198	0.196	0.763	0.519	0.194	0.258	0.852	0.241	0.158	0.169	0.754	0.733	0.261	0.239
SK-LU-1	0.198	0.138	0.115	0.118	0.579	0.158	0.139	0.121	0.425	0.116	0.145	0.112	0.637	0.197	0.18	0.194	0.64	0.234	0.211	0.227
NCI-H647	0.133	0.0786	0.049	0.0752	0.687	0.221	0.0703	0.0856	0.499	0.206	0.0824	0.0778	0.585	0.055	0.0588	0.0651	0.296	0.131	0.0349	0.0773
SW 1573	0.126	0.0666	0.0548	0.0868	0.827	0.526	0.0711	0.0971	0.372	0.0612	0.0644	0.0645	0.659	0.432	0.0931	0.106	0.314	0.0932	0.065	0.0758
